In publication PMC5218480 (PLoS ONE, 2017):

Test system: MV-4-11 cells
Assay: Gene expression microarray analysis (Affymetrix PrimeView) and GSEA
Type: cell-based, human
Set-up: RFU PODN (11730768_x_at) / Fold change /veh PODN (11730768_x_at) / RFU LINC00158 (11744669_a_at) / Fold change /veh LINC00158 (11744669_a_at) / RFU DUSP10 (11751237_a_at) / Fold change /veh DUSP10 (11751237_a_at) / RFU ID3 (11757404_x_at) / Fold change /veh ID3 (11757404_x_at) / RFU PLEKHG5 (11737974_s_at) / Fold change /veh PLEKHG5 (11737974_s_at) / RFU LRRC4B (11730491_at) / Fold change /veh LRRC4B (11730491_at) / RFU GIMAP4 (11747438_a_at) / Fold change /veh GIMAP4 (11747438_a_at) / RFU KRT8 (11758183_x_at) / Fold change /veh KRT8 (11758183_x_at) / RFU CNN1 (11734310_a_at) / Fold change /veh CNN1 (11734310_a_at) / RFU VPS37D (11726825_at) / Fold change /veh VPS37D (11726825_at) / RFU C10orf10 (11716522_x_at) / Fold change /veh C10orf10 (11716522_x_at) / RFU KIR2DL2 /// KIR2DL4 /// KIR2DL5A /// KIR2DL5B /// KIR2DS1 /// KIR2DS2 /// KIR2DS3 /// KIR2DS4 /// KIR3DL3 /// KIR3DL3 /// KIR3DS1 (11738374_at) / Fold change /veh KIR2DL2 /// KIR2DL4 /// KIR2DL5A /// KIR2DL5B /// KIR2DS1 /// KIR2DS2 /// KIR2DS3 /// KIR2DS4 /// KIR3DL3 /// KIR3DL3 /// KIR3DS1 (11738374_at) / RFU C1QL1 (11718748_at) / Fold change /veh C1QL1 (11718748_at) / RFU TMPRSS4 (11747572_a_at) / Fold change /veh TMPRSS4 (11747572_a_at) / RFU HAMP (11756126_x_at) / Fold change /veh HAMP (11756126_x_at) / RFU RNFT2 (11725882_a_at) / Fold change /veh RNFT2 (11725882_a_at) / RFU NR4A2 (11747474_a_at) / Fold change /veh NR4A2 (11747474_a_at) / RFU ABCC12 (11746883_a_at) / Fold change /veh ABCC12 (11746883_a_at) / RFU TMEM136 (11760407_x_at) / Fold change /veh TMEM136 (11760407_x_at) / RFU CLDN22 /// WWC2 (11732394_at) / Fold change /veh CLDN22 /// WWC2 (11732394_at) / RFU HLA-DPB1 (11760878_x_at) / Fold change /veh HLA-DPB1 (11760878_x_at) / RFU SPINT1 (11716480_a_at) / Fold change /veh SPINT1 (11716480_a_at) / RFU GAP43 (11754022_s_at) / Fold change /veh GAP43 (11754022_s_at) / RFU A4GNT (11735810_at) / Fold change /veh A4GNT (11735810_at) / RFU PRB3 (11715151_x_at) / Fold change /veh PRB3 (11715151_x_at) / RFU TUBB4B (11761932_at) / Fold change /veh TUBB4B (11761932_at) / RFU CAPN14 (11732068_a_at) / Fold change /veh CAPN14 (11732068_a_at) / RFU TMCC2 (11721928_a_at) / Fold change /veh TMCC2 (11721928_a_at) / RFU IRGQ (11745062_a_at) / Fold change /veh IRGQ (11745062_a_at) / RFU FAM174B (11720279_a_at) / Fold change /veh FAM174B (11720279_a_at) / RFU TMPRSS4 (11748680_a_at) / Fold change /veh TMPRSS4 (11748680_a_at) / RFU FAM212B (11763350_a_at) / Fold change /veh FAM212B (11763350_a_at) / RFU PLEKHG5 (11743358_a_at) / Fold change /veh PLEKHG5 (11743358_a_at) / RFU ZSCAN30 (11745921_a_at) / Fold change /veh ZSCAN30 (11745921_a_at) / RFU CMKLR1 (11741424_a_at) / Fold change /veh CMKLR1 (11741424_a_at) / RFU LOC101060620 /// MAPK8IP1 (11723275_at) / Fold change /veh LOC101060620 /// MAPK8IP1 (11723275_at) / RFU SPTSSB (11747773_x_at) / Fold change /veh SPTSSB (11747773_x_at) / RFU PRSS12 (11739890_at) / Fold change /veh PRSS12 (11739890_at) / RFU BIN1 (11741810_x_at) / Fold change /veh BIN1 (11741810_x_at) / RFU WNT11 (11732464_a_at) / Fold change /veh WNT11 (11732464_a_at) / RFU C10orf10 (11716521_a_at) / Fold change /veh C10orf10 (11716521_a_at) / RFU C5orf56 (11738089_at) / Fold change /veh C5orf56 (11738089_at) / RFU CYB561 (11721691_x_at) / Fold change /veh CYB561 (11721691_x_at) / RFU ANKRD19P (11752326_a_at) / Fold change /veh ANKRD19P (11752326_a_at) / RFU OR2T12 /// OR2T33 /// OR2T8 (11738714_s_at) / Fold change /veh OR2T12 /// OR2T33 /// OR2T8 (11738714_s_at) / RFU VCAN (11748164_a_at) / Fold change /veh VCAN (11748164_a_at) / RFU JSRP1 (11732532_at) / Fold change /veh JSRP1 (11732532_at) / RFU KRTAP10-11 (11738290_x_at) / Fold change /veh KRTAP10-11 (11738290_x_at) / RFU MYO3A (11730013_a_at) / Fold change /veh MYO3A (11730013_a_at) / RFU EBF3 (11725865_a_at) / Fold change /veh EBF3 (11725865_a_at) / RFU CAMK2N1 (11719241_x_at) / Fold change /veh CAMK2N1 (11719241_x_at) / RFU C5orf56 (11738088_a_at) / Fold change /veh C5orf56 (11738088_a_at) / RFU OLFML3 (11715873_a_at) / Fold change /veh OLFML3 (11715873_a_at) / RFU LOC100653217 /// NTM (11731650_a_at) / Fold change /veh LOC100653217 /// NTM (11731650_a_at) / RFU MAPK11 (11762145_a_at) / Fold change /veh MAPK11 (11762145_a_at) / RFU FIZ1 (11724087_x_at) / Fold change /veh FIZ1 (11724087_x_at) / RFU OASL (11726364_x_at) / Fold change /veh OASL (11726364_x_at) / RFU SOX15 (11748057_x_at) / Fold change /veh SOX15 (11748057_x_at) / RFU CD79A (11719716_a_at) / Fold change /veh CD79A (11719716_a_at) / RFU HIST1H1D (11736915_at) / Fold change /veh HIST1H1D (11736915_at) / RFU CASKIN2 (11723855_a_at) / Fold change /veh CASKIN2 (11723855_a_at) / RFU LOC730098 (11760151_x_at) / Fold change /veh LOC730098 (11760151_x_at) / RFU OR4N2 (11742367_at) / Fold change /veh OR4N2 (11742367_at) / RFU PRRT2 (11749266_a_at) / Fold change /veh PRRT2 (11749266_a_at) / RFU SNX32 (11753110_a_at) / Fold change /veh SNX32 (11753110_a_at) / RFU CDHR5 (11726645_a_at) / Fold change /veh CDHR5 (11726645_a_at) / RFU RCAN1 (11760418_a_at) / Fold change /veh RCAN1 (11760418_a_at) / RFU FAM167A (11723789_a_at) / Fold change /veh FAM167A (11723789_a_at) / RFU FAM26E (11764081_at) / Fold change /veh FAM26E (11764081_at) / RFU ISYNA1 (11749810_s_at) / Fold change /veh ISYNA1 (11749810_s_at) / RFU ACY1 (11761880_at) / Fold change /veh ACY1 (11761880_at) / RFU 11764098_at / Fold change /veh 11764098_at / RFU SAMD14 (11745864_x_at) / Fold change /veh SAMD14 (11745864_x_at) / RFU NPB (11741838_a_at) / Fold change /veh NPB (11741838_a_at) / RFU TMPRSS6 (11731388_a_at) / Fold change /veh TMPRSS6 (11731388_a_at) / RFU KRTAP10-2 (11738614_at) / Fold change /veh KRTAP10-2 (11738614_at) / RFU ARHGAP8 /// PRR5-ARHGAP8 (11727945_x_at) / Fold change /veh ARHGAP8 /// PRR5-ARHGAP8 (11727945_x_at) / RFU KRTAP5-7 /// NADSYN1 (11734609_at) / Fold change /veh KRTAP5-7 /// NADSYN1 (11734609_at) / RFU RASL12 (11751679_a_at) / Fold change /veh RASL12 (11751679_a_at) / RFU CDKN2B (11736163_a_at) / Fold change /veh CDKN2B (11736163_a_at) / RFU PRF1 (11729649_at) / Fold change /veh PRF1 (11729649_at) / RFU, ZNF638 /// ZNF638-IT1 / Fold change vs veh, ZNF638 /// ZNF638-IT1 / RFU, PANK3 / Fold change vs veh, PANK3 / RFU, SH3YL1 / Fold change vs veh, SH3YL1 / RFU, ZEB2 / Fold change vs veh, ZEB2 / RFU, NRIP1 / Fold change vs veh, NRIP1 / RFU, PTTG1IP / Fold change vs veh, PTTG1IP / RFU, CAPN2 / Fold change vs veh, CAPN2 / RFU, MED14 / Fold change vs veh, MED14 / RFU, SNORA58 / Fold change vs veh, SNORA58 / RFU, C1orf63 / Fold change vs veh, C1orf63 / RFU, LRRFIP1 / Fold change vs veh, LRRFIP1 / RFU, NDUFAF7 / Fold change vs veh, NDUFAF7 / RFU, SLC12A2 / Fold change vs veh, SLC12A2 / RFU, IBTK / Fold change vs veh, IBTK / RFU, ESF1 / Fold change vs veh, ESF1 / Fold change vs veh, TMEM50B / RFU, TAOK1 / Fold change vs veh, TAOK1 / RFU, ACBD3 / Fold change vs veh, ACBD3 / RFU, TMA16 / Fold change vs veh, TMA16 / RFU, RWDD3 / Fold change vs veh, RWDD3 / RFU, BCAT1 / Fold change vs veh, BCAT1 / RFU, EDEM3 / Fold change vs veh, EDEM3 / RFU, TMEM33 / Fold change vs veh, TMEM33 / RFU, WDR75 / Fold change vs veh, WDR75 / RFU, AHCTF1 / Fold change vs veh, AHCTF1 / RFU, TFRC / Fold change vs veh, TFRC / RFU, ZDHHC17 / Fold change vs veh, ZDHHC17 / RFU, NOM1 / Fold change vs veh, NOM1 / RFU, ARL8B / Fold change vs veh, ARL8B / RFU, ZBTB11 / Fold change vs veh, ZBTB11 / RFU, TAMM41 / Fold change vs veh, TAMM41 / RFU, KIAA1704 /// LOC100996395 / Fold change vs veh, KIAA1704 /// LOC100996395 / RFU, ING1 / Fold change vs veh, ING1 / RFU, TRMT61B / Fold change vs veh, TRMT61B / RFU, FUBP3 / Fold change vs veh, FUBP3 / RFU, TP53 / Fold change vs veh, TP53 / RFU, TNKS2 / Fold change vs veh, TNKS2 / RFU, ZFP14 / Fold change vs veh, ZFP14 / RFU, ACTR2 / Fold change vs veh, ACTR2 / RFU, PPP3R1 / Fold change vs veh, PPP3R1 / RFU, PIK3R1 / Fold change vs veh, PIK3R1 / RFU, HNRNPA1 / Fold change vs veh, HNRNPA1 / RFU, RNF170 / Fold change vs veh, RNF170 / RFU, ZNF28 / Fold change vs veh, ZNF28 / RFU, RNGTT / Fold change vs veh, RNGTT / RFU, OGT / Fold change vs veh, OGT / RFU, BRD1 / Fold change vs veh, BRD1 / RFU, MARS / Fold change vs veh, MARS / RFU, ZNF655 / Fold change vs veh, ZNF655 / RFU, FAHD1 / Fold change vs veh, FAHD1 / RFU, BDP1 / Fold change vs veh, BDP1 / RFU, LRRCC1 / Fold change vs veh, LRRCC1 / RFU, ARID1A / Fold change vs veh, ARID1A / RFU, ZNF146 / Fold change vs veh, ZNF146 / RFU, ZNF330 / Fold change vs veh, ZNF330 / RFU, GPN3 / Fold change vs veh, GPN3 / RFU, C9orf123 / Fold change vs veh, C9orf123 / RFU, N4BP2L2 / Fold change vs veh, N4BP2L2 / RFU, ARFIP1 / Fold change vs veh, ARFIP1 / RFU, FAM179B / Fold change vs veh, FAM179B / RFU, BCL10 / Fold change vs veh, BCL10 / RFU, UHRF1BP1L / Fold change vs veh, UHRF1BP1L / RFU, BET1 / Fold change vs veh, BET1 / RFU, CNOT2 / Fold change vs veh, CNOT2 / RFU, ZNF268 / Fold change vs veh, ZNF268 / Fold change vs veh, ZNF507 / RFU, DGCR2 / Fold change vs veh, DGCR2 / RFU, WDSUB1 / Fold change vs veh, WDSUB1 / Fold change vs veh, HSP90B1 /// MIR3652 / RFU, ADSS / Fold change vs veh, ADSS / RFU, GK / Fold change vs veh, GK / RFU, ZNF148 / Fold change vs veh, ZNF148 / RFU, TAF9 / Fold change vs veh, TAF9 / RFU, SLC1A5 / Fold change vs veh, SLC1A5 / RFU, SLMO2 / Fold change vs veh, SLMO2 / RFU, ABCC4 / Fold change vs veh, ABCC4 / RFU, LOC101060439 /// RAP1B / Fold change vs veh, LOC101060439 /// RAP1B / RFU, RFX7 / Fold change vs veh, RFX7 / RFU, GTPBP10 / Fold change vs veh, GTPBP10 / RFU, CNEP1R1 / Fold change vs veh, CNEP1R1 / RFU, BIVM-ERCC5 /// ERCC5 / Fold change vs veh, BIVM-ERCC5 /// ERCC5 / RFU, ILF3 / Fold change vs veh, ILF3 / RFU 11762660_at / Fold change /veh 11762660_at / RFU VCAN (11757783_s_at) / Fold change /veh VCAN (11757783_s_at) / RFU DDX43 (11728927_at) / Fold change /veh DDX43 (11728927_at) / RFU KRT8 (11758188_x_at) / Fold change /veh KRT8 (11758188_x_at) / RFU NKD1 (11759106_at) / Fold change /veh NKD1 (11759106_at) / RFU SRD5A1 (11742802_a_at) / Fold change /veh SRD5A1 (11742802_a_at) / RFU TPSAB1 /// TPSB2 (11721975_s_at) / Fold change /veh TPSAB1 /// TPSB2 (11721975_s_at) / RFU GSTM3 (11746129_a_at) / Fold change /veh GSTM3 (11746129_a_at) / RFU IL23R (11737362_x_at) / Fold change /veh IL23R (11737362_x_at) / RFU TMEM51 (11727254_a_at) / Fold change /veh TMEM51 (11727254_a_at) / RFU PIWIL2 (11732686_x_at) / Fold change /veh PIWIL2 (11732686_x_at) / RFU ORM1 (11744905_x_at) / Fold change /veh ORM1 (11744905_x_at) / RFU CCDC152 (11743942_at) / Fold change /veh CCDC152 (11743942_at) / RFU ECM1 (11717891_a_at) / Fold change /veh ECM1 (11717891_a_at) / RFU IL23R (11748794_a_at) / Fold change /veh IL23R (11748794_a_at) / RFU TNFAIP8L3 (11732012_x_at) / Fold change /veh TNFAIP8L3 (11732012_x_at) / RFU MBOAT4 (11741988_at) / Fold change /veh MBOAT4 (11741988_at) / RFU 11764193_at / Fold change /veh 11764193_at / RFU TMEM53 (11763286_at) / Fold change /veh TMEM53 (11763286_at) / RFU MAGEB2 (11727129_at) / Fold change /veh MAGEB2 (11727129_at) / RFU TMEM200A (11744735_a_at) / Fold change /veh TMEM200A (11744735_a_at) / RFU CCDC152 (11751479_a_at) / Fold change /veh CCDC152 (11751479_a_at) / RFU FAM211A (11726209_a_at) / Fold change /veh FAM211A (11726209_a_at) / RFU RGS16 (11746705_a_at) / Fold change /veh RGS16 (11746705_a_at) / RFU VCAN (11755009_s_at) / Fold change /veh VCAN (11755009_s_at) / RFU RHOB (11743442_s_at) / Fold change /veh RHOB (11743442_s_at) / RFU RGS16 (11720943_a_at) / Fold change /veh RGS16 (11720943_a_at) / RFU RGS16 (11720944_at) / Fold change /veh RGS16 (11720944_at) / RFU, VPS4B / Fold change vs veh, VPS4B / RFU, CREB1 / Fold change vs veh, CREB1 / RFU, DNAJC13 / Fold change vs veh, DNAJC13 / RFU, GNAQ / Fold change vs veh, GNAQ / RFU, CDK5R1 / Fold change vs veh, CDK5R1 / RFU, ZRANB3 / Fold change vs veh, ZRANB3 / RFU, CUL4A / Fold change vs veh, CUL4A / RFU, CCNY / Fold change vs veh, CCNY / RFU, UFL1 / Fold change vs veh, UFL1 / RFU, COG3 / Fold change vs veh, COG3 / RFU, DIAPH2 / Fold change vs veh, DIAPH2 / RFU, SKA2 / Fold change vs veh, SKA2 / RFU, AFF3 / Fold change vs veh, AFF3 / RFU, LMF1 / Fold change vs veh, LMF1 / RFU, IPO11 / Fold change vs veh, IPO11 / RFU, DFFB / Fold change vs veh, DFFB / RFU, FOXP1 / Fold change vs veh, FOXP1 / RFU, CARD8 / Fold change vs veh, CARD8 / RFU, STRN3 / Fold change vs veh, STRN3 / RFU, ADK / Fold change vs veh, ADK / RFU, RASSF2 / Fold change vs veh, RASSF2 / RFU, WIPF1 / Fold change vs veh, WIPF1 / RFU, LARP1B / Fold change vs veh, LARP1B / RFU, RASA1 / Fold change vs veh, RASA1 / RFU, RB1 / Fold change vs veh, RB1 / RFU, PPFIA1 / Fold change vs veh, PPFIA1 / RFU, MAT2A / Fold change vs veh, MAT2A / RFU, CCT5 / Fold change vs veh, CCT5 / RFU, WDR92 / Fold change vs veh, WDR92 / RFU, CUX1 / Fold change vs veh, CUX1 / RFU, TTC7A / Fold change vs veh, TTC7A / RFU, TMEM135 / Fold change vs veh, TMEM135 / RFU, DEPTOR / Fold change vs veh, DEPTOR / RFU, CPM / Fold change vs veh, CPM / RFU, DNAJB6 / Fold change vs veh, DNAJB6 / RFU, CACNA2D3 / Fold change vs veh, CACNA2D3 / RFU, DTX4 / Fold change vs veh, DTX4 / RFU, TFCP2 / Fold change vs veh, TFCP2 / RFU, GMCL1 /// GMCL1P1 / Fold change vs veh, GMCL1 /// GMCL1P1 / RFU, AEBP2 / Fold change vs veh, AEBP2 / RFU, SNHG1 /// SNORD22 /// SNORD25 /// SNORD26 /// SNORD27 /// SNORD28 /// SNORD29 /// SNORD31 / Fold change vs veh, SNHG1 /// SNORD22 /// SNORD25 /// SNORD26 /// SNORD27 /// SNORD28 /// SNORD29 /// SNORD31 / Fold change (Aza/veh), C12orf56 (ProbeSet 11735607_a_at) / Fold change (ACY-1035/veh), C12orf56 (ProbeSet 11735607_a_at) / Fold change (Aza/veh), FGFR1OP (ProbeSet 11751329_s_at) / Fold change (ACY-1035/veh), FGFR1OP (ProbeSet 11751329_s_at) / Fold change (Aza/veh), VPS36 (ProbeSet 11739960_a_at) / Fold change (ACY-1035/veh), VPS36 (ProbeSet 11739960_a_at) / RFU SYPL1 (11715823_x_at) / Fold change /veh SYPL1 (11715823_x_at) / RFU IGFBP7 (11715501_s_at) / Fold change /veh IGFBP7 (11715501_s_at) / RFU REEP3 (11722064_at) / Fold change /veh REEP3 (11722064_at) / RFU IGLL1 (11728026_x_at) / Fold change /veh IGLL1 (11728026_x_at): dose or concentration left out as unconfirmed
Conditions: MV-4-11 cells, 48 hours

Compound: Nc1ccc(-c2cccs2)cc1NC(=O)c1ccc2c(c1)cc(C1CC1)n2CCN1CCOCC1 [ACY-1035]
- Fold change /veh RGS16 (11720943_a_at): 0.99
